Results: ChEMBL document CHEMBL4808186, “Structure-Based Discovery of Pyrimidine Aminobenzene Derivatives as Potent Oral Reversal Agents against P-gp- and BCRP-Mediated Multidrug Resistance” (J Med Chem, 2021)
Activity calls are given as the source filed them. The calls are words filed in the database; no cut-off is given here.

What was measured:
K562 [1] = test: Cytotoxicity against human K562 cells incubated for 48 hrs by MTT assay; type: functional, cell-based; details: K562, 48 h
MDCK-II [2] = test: cells; details: Canis lupus familiaris, 48 h
[3] = n-Octanol/water partition coefficient, logP of the compound by UHPLC analysis; type: physicochemical
MDCK-II [4] = test: cells; details: Canis lupus familiaris, 48 h; remark: listed apart in the source
K562/A02 = test: Cytotoxicity against P-gp overexpressing human K562/A02 cells incubated for 48 hrs by MTT assay; type: functional, cell-based; details: K562/A02, 48 h
[5] = target: T1, ATP-dependent translocase ABCB1 (Homo sapiens, UniProt P08183); test: Inhibition of P-gp-mediated multidrug resistance in human K562/A02 cells assessed as Adriamycin accumulation pretreated 1 hr followed by treated with adriamycin measured after 180 mins by flow cytometry; type: cell-based; details: k562/a02, 4 h, time 240 min
[6] = target: T1, ATP-dependent translocase ABCB1; test: Inhibition of P-gp-mediated multidrug resistance in human K562/A02 cells assessed as Adriamycin accumulation at 1 to 10 uM pretreated 1 hr followed by treated with adriamycin measured after 180 mins by fluorescence microscopy; type: cell-based; details: k562/a02, 4 h, dose 1-10 µM, time 240 min
K562 [7] = test: cells; details: Homo sapiens, K562, 48 h, read-out: Activity
MDCK-II [8] = test: Inhibition of BCRP-mediated multidrug resistance in MDCK-II cells assessed as mitoxantrone accumulation at 0.1 to 5 uM pretreated 1 hr followed by treated with mitoxantrone measured after 180 mins by flow cytometry; type: cell-based; details: Canis lupus familiaris, dose 0.1-5 µM, time 240.0 min
[9] = Tmax in Sprague-Dawley rat at 5 mg/kg, iv by UHPLC-MS analysis; type: ADME, organism-based; details: in vivo
[10] = Cmax in Sprague-Dawley rat at 20 mg/kg, po by UHPLC-MS analysis; type: ADME, organism-based; set-up: route oral, dose 20 mg/kg; details: in vivo
[11] = AUC (0 to t) in Sprague-Dawley rat at 5 mg/kg, iv by UHPLC-MS analysis; type: ADME, organism-based; set-up: dose 5 mg/kg; details: in vivo
[12] = Oral bioavailability in Sprague-Dawley rat at 20 mg/kg by UHPLC-MS analysis; type: ADME, organism-based; details: in vivo
[13] = Oral bioavailability in Sprague-Dawley rat at 20 mg/kg in presence of N-(2-(6,7-Dimethoxy-3,4-dihydroisoquinolin-2(1H)-yl)ethyl)-3-((4-(furan-2-yl)pyrimidin-2-yl)amino)-4-methylbenzamide by UHPLC-MS analysis; type: ADME, organism-based; details: in vivo
[14] = Apparent oral clearance in Sprague-Dawley rat at 20 mg/kg, po in presence of N-(2-(6,7-Dimethoxy-3,4-dihydroisoquinolin-2(1H)-yl)ethyl)-3-((4-(furan-2-yl)pyrimidin-2-yl)amino)-4-methylbenzamide by UHPLC-MS analysis; type: ADME, organism-based; details: in vivo
[15] = Apparent oral clearance in Sprague-Dawley rat at 5 mg/kg, iv by UHPLC-MS analysis; type: ADME, organism-based; details: in vivo
[16] = AUC (0 to t) in Sprague-Dawley rat at 20 mg/kg, po in presence of N-(2-(6,7-Dimethoxy-3,4-dihydroisoquinolin-2(1H)-yl)ethyl)-3-((4-(furan-2-yl)pyrimidin-2-yl)amino)-4-methylbenzamide by UHPLC-MS analysis; type: ADME, organism-based; set-up: dose 20 mg/kg; details: in vivo
[17] = Apparent oral volume of distribution in Sprague-Dawley rat at 20 mg/kg, po in presence of N-(2-(6,7-Dimethoxy-3,4-dihydroisoquinolin-2(1H)-yl)ethyl)-3-((4-(furan-2-yl)pyrimidin-2-yl)amino)-4-methylbenzamide by UHPLC-MS analysis; type: ADME, organism-based; details: in vivo
[18] = Apparent oral volume of distribution in Sprague-Dawley rat at 5 mg/kg, iv by UHPLC-MS analysis; type: ADME, organism-based; details: in vivo
[19] = Tmax in Sprague-Dawley rat at 20 mg/kg, po by UHPLC-MS analysis; type: ADME, organism-based; details: in vivo
[20] = Apparent oral volume of distribution in Sprague-Dawley rat at 20 mg/kg, po by UHPLC-MS analysis; type: ADME, organism-based; details: in vivo
[21] = Tmax in Sprague-Dawley rat at 20 mg/kg, po in presence of N-(2-(6,7-Dimethoxy-3,4-dihydroisoquinolin-2(1H)-yl)ethyl)-3-((4-(furan-2-yl)pyrimidin-2-yl)amino)-4-methylbenzamide by UHPLC-MS analysis; type: ADME, organism-based; details: in vivo
[22] = Bioavailability in Sprague-Dawley rat at 5 mg/kg, iv by UHPLC-MS analysis; type: ADME, organism-based; details: in vivo
[23] = Cmax in Sprague-Dawley rat at 20 mg/kg, po in presence of N-(2-(6,7-Dimethoxy-3,4-dihydroisoquinolin-2(1H)-yl)ethyl)-3-((4-(furan-2-yl)pyrimidin-2-yl)amino)-4-methylbenzamide by UHPLC-MS analysis; type: ADME, organism-based; set-up: route oral, dose 20 mg/kg; details: in vivo
in vivo [24] = details: Sprague-Dawley, rat, po, 20 mg/kg
[25] = Apparent oral clearance in Sprague-Dawley rat at 20 mg/kg, po by UHPLC-MS analysis; type: ADME, organism-based; details: in vivo
[26] = AUC (0 to t) in Sprague-Dawley rat at 20 mg/kg, po by UHPLC-MS analysis; type: ADME, organism-based; set-up: dose 20 mg/kg; details: in vivo
[27] = Cmax in Sprague-Dawley rat at 5 mg/kg, iv by UHPLC-MS analysis; type: ADME, organism-based; set-up: route intravenous, dose 5 mg/kg; details: in vivo
in vivo [28] = details: Sprague-Dawley, rat, iv, 5 mg/kg

T1 sequence (P08183 whole entry): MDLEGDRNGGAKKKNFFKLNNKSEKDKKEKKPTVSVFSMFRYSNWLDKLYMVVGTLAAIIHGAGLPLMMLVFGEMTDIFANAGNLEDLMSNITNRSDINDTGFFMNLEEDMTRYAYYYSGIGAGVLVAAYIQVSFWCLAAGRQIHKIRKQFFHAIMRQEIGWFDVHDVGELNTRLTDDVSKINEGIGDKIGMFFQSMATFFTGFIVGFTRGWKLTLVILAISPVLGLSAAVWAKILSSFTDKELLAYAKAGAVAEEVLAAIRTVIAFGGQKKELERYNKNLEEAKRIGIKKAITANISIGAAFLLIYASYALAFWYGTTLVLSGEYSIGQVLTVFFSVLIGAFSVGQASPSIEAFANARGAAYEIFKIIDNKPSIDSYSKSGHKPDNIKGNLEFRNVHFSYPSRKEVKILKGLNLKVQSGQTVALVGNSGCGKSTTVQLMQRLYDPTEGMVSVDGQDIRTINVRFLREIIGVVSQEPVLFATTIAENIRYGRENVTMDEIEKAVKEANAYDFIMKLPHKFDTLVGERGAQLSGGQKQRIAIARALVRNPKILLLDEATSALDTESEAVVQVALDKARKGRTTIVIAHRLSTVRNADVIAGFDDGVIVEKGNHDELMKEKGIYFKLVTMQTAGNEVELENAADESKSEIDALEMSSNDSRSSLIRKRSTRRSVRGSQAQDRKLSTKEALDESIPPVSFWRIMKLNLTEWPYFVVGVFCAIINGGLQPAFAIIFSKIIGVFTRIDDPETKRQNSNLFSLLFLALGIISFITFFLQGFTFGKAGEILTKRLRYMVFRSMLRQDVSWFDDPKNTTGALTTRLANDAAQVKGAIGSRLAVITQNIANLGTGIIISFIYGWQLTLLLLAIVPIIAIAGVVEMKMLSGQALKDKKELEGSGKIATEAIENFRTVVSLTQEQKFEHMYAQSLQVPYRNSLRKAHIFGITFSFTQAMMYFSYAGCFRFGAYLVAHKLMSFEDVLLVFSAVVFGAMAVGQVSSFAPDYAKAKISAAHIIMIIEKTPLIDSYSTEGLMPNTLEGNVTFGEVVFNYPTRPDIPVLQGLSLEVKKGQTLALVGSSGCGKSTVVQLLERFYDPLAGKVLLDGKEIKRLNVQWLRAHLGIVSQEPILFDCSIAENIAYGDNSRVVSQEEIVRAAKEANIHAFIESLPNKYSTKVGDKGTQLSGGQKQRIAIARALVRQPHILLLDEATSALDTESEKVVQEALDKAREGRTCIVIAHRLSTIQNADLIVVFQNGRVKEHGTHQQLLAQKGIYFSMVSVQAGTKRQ

Compound	IC50 (K562 [1]) [µM]	IC50 (MDCK-II [2]) [µM]	logP [3]	IC50 (MDCK-II [4]) [µM]	IC50 (K562/A02; read-out: IC50) [µM]	further results
COc1cc2c(cc1OC)CN(CCc1ccc(NC(=O)c3ccc(C)c(Nc4nccc(-c5cccnc5)n4)c3)cc1)CC2	> 100	> 100	1.86	> 100	60.4	–
COc1cc2c(cc1OC)CN(CCc1ccc(NC(=O)c3ccc(C)c(Nc4nccc(-c5ccccc5O)n4)c3)cc1)CC2	> 100	> 100	2.77	> 100	> 100	–
COc1cc2c(cc1OC)CN(CCNC(=O)c1ccc(C)c(Nc3nccc(-c4ccc(F)cc4)n3)c1)CC2	> 100	57.6	2.04	> 100	75.3	–
COc1cc2c(cc1OC)CN(CCc1ccc(NC(=O)c3ccc(C)c(Nc4nccc(-c5ccc(F)cc5)n4)c3)cc1)CC2	> 100	> 100	1.19	> 100	> 100	–
COc1ccc(CCN(C)CCCC(C#N)(c2ccc(OC)c(OC)c2)C(C)C)cc1OC (stereo unspecified)	> 100	–	–	–	> 100	Activity [5]: Dose-Dependent Effect; Activity [6]: Active
COc1cc2c(cc1OC)CN(CCNC(=O)c1ccc(C)c(Nc3nccc(-c4cccnc4)n3)c1)CC2	> 100	> 100	0.8	> 100	> 100	–
COc1cc2c(cc1OC)CN(CCc1ccc(NC(=O)c3ccc(C)c(Nc4nccc(-c5ccc(C)cc5)n4)c3)cc1)CC2	> 100	61.3	–	> 100	–	–
COc1cc2c(cc1OC)CN(CCc1ccc(NC(=O)c3cc(=O)c4ccc(C)cc4o3)cc1)CC2	> 100	88.7	1.87	> 100	> 100	–
COc1cc2c(cc1OC)CN(CCNC(=O)c1ccc(C)c(Nc3nccc(-c4ccc(C)cc4)n3)c1)CC2	73.8	42.1	–	> 100	58.7	–
COc1cc2c(cc1OC)CN(CCNC(=O)c1ccc(C)c(Nc3nccc(-c4ccccc4)n3)c1)CC2	> 100	4740	1.9	> 100	66.2	–
COc1cc2c(cc1OC)CN(CCNC(=O)c1ccc(C)c(Nc3nccc(-c4ccccc4O)n3)c1)CC2	> 100	–	2.31	91.4	52.3	–
COc1cc2c(cc1OC)CN(CCc1ccc(NC(=O)c3cc(=O)c4ccccc4o3)cc1)CC2	> 100	> 100	0.93	> 100	> 100	–
Cc1ccc(NC(=O)c2ccc(CN3CCN(C)CC3)cc2)cc1Nc1nccc(-c2cccnc2)n1 [IMATINIB]	87.3	> 100	–	65.8	–	viability at 5 µM (K562 [7]): 81.6%; IC50 (K562/A02): 75.7 µM
COc1cc2c(cc1OC)CN(CCNC(=O)c1ccc(C)c(Nc3nccc(-c4cccs4)n3)c1)CC2	> 100	61.5	1.94	> 100	72	–
COc1ccc(-c2ccnc(Nc3cc(C(=O)Nc4ccc(CCN5CCc6cc(OC)c(OC)cc6C5)cc4)ccc3C)n2)cc1	> 100	> 100	1.35	> 100	> 100	–
COc1cc2c(cc1OC)CN(CCc1ccc(NC(=O)c3ccc(C)c(Nc4nccc(-c5ccco5)n4)c3)cc1)CC2	> 100	> 100	1.7	> 100	> 100	–
COc1cc2c(cc1OC)CN(CCc1ccc(NC(=O)c3cc(=O)c4cc(F)ccc4o3)cc1)CC2	> 100	> 100	–	> 100	82	–
COc1cc2c(cc1OC)CN(CCc1ccc(NC(=O)c3ccc(C)c(Nc4nccc(-c5cccs5)n4)c3)cc1)CC2	> 100	> 100	1.48	> 100	> 100	–
COc1cc2c(cc1OC)CN(CCc1ccc(NC(=O)c3cc(=O)c4c(OC)cccc4o3)cc1)CC2	> 100	> 100	0.76	> 100	> 100	–
COc1ccc(-c2ccnc(Nc3cc(C(=O)NCCN4CCc5cc(OC)c(OC)cc5C4)ccc3C)n2)cc1	> 100	55.2	2.16	> 100	64.9	–
COc1cc2c(cc1OC)CN(CCc1ccc(NC(=O)c3ccc(C)c(Nc4nccc(-c5ccccc5)n4)c3)cc1)CC2	> 100	79.7	1.89	> 100	> 100	–
COc1cc2c(cc1OC)CN(CCc1ccc(NC(=O)c3ccc(C)c(Nc4nccc(-c5cccc(O)c5)n4)c3)cc1)CC2	> 100	> 100	2.28	> 100	84.2	–
COc1cc2c(cc1OC)CN(CCc1ccc(NC(=O)c3cc(OC)c(OC)cc3NC(=O)c3cnc4ccccc4c3)cc1)CC2	> 100	83.6	–	> 100	> 100	Activity (MDCK-II [8]): Active; Activity [5]: Dose-Dependent Effect; viability at 5 µM (K562 [7]): 61.3%; Activity [6]: Active
COc1cc2c(cc1OC)CN(CCc1ccc(NC(=O)c3cc(=O)c4c(O)cccc4o3)cc1)CC2	> 100	68.4	1.78	85.7	45.3	–
COc1cc2c(cc1OC)CN(CCNC(=O)c1ccc(C)c(Nc3nccc(-c4ccccn4)n3)c1)CC2	> 100	64.2	1.71	> 100	89.6	–
COc1ccc2c3c([nH]c2c1)[C@H](CC(C)C)N1C(=O)[C@H](CCC(=O)OC(C)(C)C)NC(=O)[C@@H]1C3	71.5	58.3	–	87.2	58.7	Activity (MDCK-II [8]): Active
COc1cc2c(cc1OC)CN(CCc1ccc(NC(=O)c3ccc(C)c(Nc4nccc(-c5ccccn5)n4)c3)cc1)CC2	> 100	> 100	1.73	> 100	89.6	–
COc1cc2c(cc1OC)CN(CCNC(=O)c1ccc(C)c(Nc3nccc(-c4cccc(O)c4)n3)c1)CC2	> 100	72.6	–	> 100	57.5	–
CC(=O)O[C@H]1C(=O)[C@@]2(C)[C@H]([C@H](OC(=O)c3ccccc3)[C@]3(O)C[C@H](OC(=O)[C@H](O)[C@@H](NC(=O)c4ccccc4)c4ccccc4)C(C)=C1C3(C)C)[C@]1(OC(C)=O)CO[C@@H]1C[C@@H]2O [PACLITAXEL]	–	–	–	–	–	Tmax [9]: 0.44 h; Cmax [10]: 233 ng/mL; AUC(0-t) [11]: 1730 ng·h/mL; bioavailability [12]: 8.8%; bioavailability [13]: 64.7%; CL/F [14]: 4.43 L/h; CL/F [15]: 2.88 L/h; AUC(0-t) [16]: 4490 ng·h/mL; Vd/F [17]: 19.06 L; Vd/F [18]: 5.06 L; Tmax [19]: 2 h; Vd/F [20]: 67.4 L; Tmax [21]: 2.65 h; F [22]: 100%; Cmax [23]: 853 ng/mL; half-life (in vivo [24]): 1.35 h; CL/F [25]: 546 mL/min; AUC(0-t) [26]: 611 ng·h/mL; Cmax [27]: 926 ng/mL; half-life (in vivo [28]): 7.2 min
